Data published in paper PMC9147192, “Small Molecule Arranged Thermal Proximity Coaggregation (smarTPCA)—A Novel Approach to Characterize Protein–Protein Interactions in Living Cells by Similar Isothermal Dose–Responses” (International Journal of Molecular Sciences, 2022).

Target: T1, GANAB (Homo sapiens, UniProt Q14697)
T1 construct: endogenous in cells; host or cells: HL-60 (ATCC CCL-240)
T1 sequence (Q14697 29-944): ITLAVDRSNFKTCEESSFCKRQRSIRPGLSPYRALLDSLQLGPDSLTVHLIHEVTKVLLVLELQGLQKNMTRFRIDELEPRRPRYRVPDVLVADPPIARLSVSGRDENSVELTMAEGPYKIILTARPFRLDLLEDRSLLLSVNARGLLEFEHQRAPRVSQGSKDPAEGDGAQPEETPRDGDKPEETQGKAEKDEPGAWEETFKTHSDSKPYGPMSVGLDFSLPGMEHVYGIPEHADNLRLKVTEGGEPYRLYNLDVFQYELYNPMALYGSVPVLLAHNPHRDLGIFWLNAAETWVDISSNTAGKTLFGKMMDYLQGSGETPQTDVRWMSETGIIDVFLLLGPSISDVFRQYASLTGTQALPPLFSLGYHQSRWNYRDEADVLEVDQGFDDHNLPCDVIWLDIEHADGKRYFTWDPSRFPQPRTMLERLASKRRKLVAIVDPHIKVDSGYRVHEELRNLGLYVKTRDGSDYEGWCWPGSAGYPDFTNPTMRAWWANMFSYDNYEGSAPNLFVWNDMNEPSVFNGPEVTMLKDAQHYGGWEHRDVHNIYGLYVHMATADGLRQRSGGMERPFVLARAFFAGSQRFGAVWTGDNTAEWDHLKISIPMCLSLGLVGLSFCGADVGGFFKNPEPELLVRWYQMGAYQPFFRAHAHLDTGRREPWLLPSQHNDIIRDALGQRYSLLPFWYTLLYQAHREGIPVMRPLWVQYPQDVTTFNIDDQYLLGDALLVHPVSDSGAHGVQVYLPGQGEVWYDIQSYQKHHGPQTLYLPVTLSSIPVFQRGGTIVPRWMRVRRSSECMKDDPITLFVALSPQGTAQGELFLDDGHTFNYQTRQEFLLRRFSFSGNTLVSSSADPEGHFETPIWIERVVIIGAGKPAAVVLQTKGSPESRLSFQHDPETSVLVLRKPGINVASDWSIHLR
Experiment: TPP-CCR in living HL-60 cells
Format: cell-based

For `Cc1cnc(Nc2ccc(F)cc2Cl)nc1-c1c[nH]c(C(=O)N[C@H](CO)c2cccc(Cl)c2)c1` [ERK 11e], the Hill slope (TPP-CCR, living cells, GANAB) was 1.81, the “Hill slope (GANAB)” value (living HL-60 cells, […] °C, TMT-MS) was 1.81 and the EC50 (living HL-60 cells, […] °C, TMT-MS, read-out: pEC50 (GANAB) (converted)) was 5.25 µM.
